Measurements published in patent US20260265220A1, “GALPHA12 INHIBITORS AND METHODS USING SAME” (RUTGERS, THE STATE UNIVERSITY OF NEW JERSEY, priority 2022, published 2026).
“And” between values parts separate entries of the source, which are not always exact repeats. Identical values can stand only once. Like-named read-outs stand apart in the source and are kept apart here.

Legend:
[1] = test system: AKT phosphorylation (pAKT); experiment: Immunoblot analysis of AKT phosphorylation (pAKT) in airway smooth muscle cells; type: cell-based, human; details: compound at 100 μM (FIGS. 4A-4B)
Procedure: (§1) Compounds 1-3 were evaluated for inhibition of AKT and MLC phosphorylation. As described elsewhere herein, phosphorylation of AKT and/or MLC can occur with activation of the Gα12 pathway. Accordingly, in certain embodiments, detection of a decrease in pAKT and/or pMLC indicates inhibition of Gα12.
(§2) The immunoblot analysis of phosphorylation of myosin light chain (pMLC) was used as a surrogate for ASM contraction. In parallel, phosphorylation of AKT was analogously assessed. AKT is a downstream substrate for phosphoinositide 3-kinase (PI3K) activity, can modulate the activation of the Gα12 pathway in primary human airway smooth muscle cells. These cells are the pivotal cells regulating bronchomotor tone in asthma and chronic obstructive pulmonary disease (COPD) which is emphysema or chronic bronchitis.
(§3) The analogues described herein were further assessed for potency and efficacy in inhibiting AKT and pMLC phosphorylation induced by contractile agonists, carbachol, or histamine. These contractile agonists are pivotal in causing airway smooth muscle contraction and airway obstruction in asthma and COPD.

Gα12 = target: T1, Gα12 (Homo sapiens, UniProt Q03113); experiment: Gα12 luciferase reporter assay in hTERT-SRE immortalized airway smooth muscle cells, carbachol stimulated; type: cell-based; details: carbachol (CCh) stimulated, dose response
T1 sequence (Q03113 1-381): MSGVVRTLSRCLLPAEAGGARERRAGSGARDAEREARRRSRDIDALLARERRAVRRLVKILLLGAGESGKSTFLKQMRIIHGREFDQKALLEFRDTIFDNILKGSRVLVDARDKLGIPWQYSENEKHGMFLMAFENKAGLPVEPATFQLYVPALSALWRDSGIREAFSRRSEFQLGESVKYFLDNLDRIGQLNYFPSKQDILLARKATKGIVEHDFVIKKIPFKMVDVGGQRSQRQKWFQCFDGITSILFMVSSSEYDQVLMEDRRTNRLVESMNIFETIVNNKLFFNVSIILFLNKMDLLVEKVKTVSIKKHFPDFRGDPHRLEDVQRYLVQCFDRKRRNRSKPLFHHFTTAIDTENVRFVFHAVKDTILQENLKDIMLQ
Text: FIGS. 1A-1C show an experimental approach to the identification of Gα12 modulators using hTERT-SRE human telomerase reverse transcriptase immortalized airway smooth muscle cells. FIG. 1A: provides a schematic representation of Gα12-activated luciferase reporter. […] FIG. 1C: provides a detailed schematic showing the downstream effects of Gα12/13 activation and/or inhibition, wherein serum response element (SRE) may be detected by a luciferase assay, and pAKT and pMLC may be detected by Western blotting. A Gα12 luciferase reporter assay was used to evaluate the potential of analogues of compound 1 as bronchodilators (FIGS. 2A-2C), wherein the assay utilized hTERT-SRE telomerase reverse transcriptase immortalized airway smooth muscle cells. In certain embodiments, the Gα12 pathway is activated with carbachol (CCh), resulting in downstream transcription of a […]/luciferase fusion protein (FIG. 1A), and consequently, a fluorescence signal (FIG. 1B). In certain embodiments, detection of a decrease in observed fluorescent signal indicates inhibition of Gα12. Further, activation of the Gα12 pathway results in elevated levels of phosphorylated AKT (pAKT) and MLC (pMLC) (FIG. 1C). In certain embodiments, detection of a decrease in pAKT and/or pMLC indicates inhibition of Gα12.

[2] = test system: MLC phosphorylation (pMLC); experiment: Immunoblot analysis of myosin light chain phosphorylation (pMLC) in airway smooth muscle cells; type: cell-based, human; details: compound at 100 μM (FIGS. 4C-4D)
Procedure: as §1, §2, §3

113 unique human kinases = experiment: Eurofins kinase activity panel; type: biochemical; details: 1, 10 and 100 μM
Procedure: (§4) Using the Eurofins™ platform, a kinase activity assay was performed to identify human kinases inhibited by compound 1. To determine the effects of the compound on kinase activity, varying concentrations of compound 1 (1, 10 and 100 μM) were used with one technical replicate in a standard in vitro kinase activation assay.
(§5) This platform was used to determine the effects of compound 1 on the activity of 113 unique human kinases. Thresholds for kinase activity of interest was set at less than or equal to 60% […] (i.e., for antagonists) or enhanced activity at or above 140% (i.e., for agonists). Further, the validity of the results were confirmed by the occurrence of a dose-dependent response.

MAPKAP-K2(h) = target: T2, MAPKAP-K2(h) (Homo sapiens, UniProt P49137); experiment: Eurofins in vitro kinase activity assay; type: biochemical
T2 construct: purchased Eurofins
Procedure: as §4, §5

mTOR(h) = target: T3, mTOR(h) (Homo sapiens, UniProt P42345); experiment: Eurofins in vitro kinase activity assay; type: biochemical; details: read-out: mTOR(h) kinase activity (human kinase inhibition data)
T3 construct: purchased Eurofins
Procedure: as §4, §5

Fms(h) = target: T4, Fms(h) (Homo sapiens, UniProt P07333); experiment: Eurofins in vitro kinase activity assay; type: biochemical; details: read-out: Fms(h) kinase activity (human kinase inhibition data)
T4 construct: purchased Eurofins
Procedure: as §4, §5

TrkA(h) = target: T5, TrkA(h) (Homo sapiens, UniProt P04629); experiment: Eurofins in vitro kinase activity assay; type: biochemical; details: read-out: TrkA(h) kinase activity (human kinase inhibition data)
T5 construct: purchased Eurofins
Procedure: as §4, §5

IGF-1R(h) = target: T6, IGF-1R(h) (Homo sapiens, UniProt P08069); experiment: Eurofins in vitro kinase activity assay; type: biochemical; details: read-out: IGF-1R(h) kinase activity (human kinase inhibition data)
T6 construct: purchased Eurofins
Procedure: as §4, §5

PI3Kδ = target: T7, PI3Kδ (Homo sapiens, UniProt O00329); experiment: Eurofins in vitro kinase activity assay; type: biochemical
T7 construct: purchased Eurofins
Procedure: as §4, §5

T6 sequence (P08069 31-1367): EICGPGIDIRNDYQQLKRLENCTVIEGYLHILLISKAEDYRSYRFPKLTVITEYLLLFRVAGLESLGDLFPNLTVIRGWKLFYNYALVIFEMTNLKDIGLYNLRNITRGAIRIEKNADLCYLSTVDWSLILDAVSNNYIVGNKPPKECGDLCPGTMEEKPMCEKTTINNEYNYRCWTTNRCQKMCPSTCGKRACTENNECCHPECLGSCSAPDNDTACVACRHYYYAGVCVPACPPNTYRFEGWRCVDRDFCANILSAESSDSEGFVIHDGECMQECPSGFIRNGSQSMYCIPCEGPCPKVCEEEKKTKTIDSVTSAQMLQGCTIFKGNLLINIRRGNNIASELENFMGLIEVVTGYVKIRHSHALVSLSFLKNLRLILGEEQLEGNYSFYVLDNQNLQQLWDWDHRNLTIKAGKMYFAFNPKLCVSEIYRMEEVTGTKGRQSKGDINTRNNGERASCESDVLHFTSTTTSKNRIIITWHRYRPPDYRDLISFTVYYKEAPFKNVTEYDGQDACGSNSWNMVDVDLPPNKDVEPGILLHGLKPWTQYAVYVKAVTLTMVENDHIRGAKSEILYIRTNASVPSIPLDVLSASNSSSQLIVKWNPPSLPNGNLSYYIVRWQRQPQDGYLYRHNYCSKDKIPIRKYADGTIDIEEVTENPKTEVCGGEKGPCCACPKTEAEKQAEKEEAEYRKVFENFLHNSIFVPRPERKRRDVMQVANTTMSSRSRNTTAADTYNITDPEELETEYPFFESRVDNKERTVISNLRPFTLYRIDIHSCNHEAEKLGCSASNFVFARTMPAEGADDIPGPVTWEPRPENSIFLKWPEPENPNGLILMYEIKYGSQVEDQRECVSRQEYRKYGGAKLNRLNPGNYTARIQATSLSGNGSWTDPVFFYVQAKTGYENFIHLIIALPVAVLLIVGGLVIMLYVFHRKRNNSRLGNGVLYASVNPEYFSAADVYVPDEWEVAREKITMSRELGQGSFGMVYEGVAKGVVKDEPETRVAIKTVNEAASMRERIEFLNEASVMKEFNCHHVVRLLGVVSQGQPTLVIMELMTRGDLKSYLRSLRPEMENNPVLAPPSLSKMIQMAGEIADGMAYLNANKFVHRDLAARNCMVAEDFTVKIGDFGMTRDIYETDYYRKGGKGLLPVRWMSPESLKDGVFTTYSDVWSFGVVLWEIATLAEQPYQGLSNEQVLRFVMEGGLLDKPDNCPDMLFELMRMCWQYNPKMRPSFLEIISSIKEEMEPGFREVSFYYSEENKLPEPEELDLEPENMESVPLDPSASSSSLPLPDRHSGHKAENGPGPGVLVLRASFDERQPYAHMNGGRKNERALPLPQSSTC
T2 sequence (P49137 whole entry): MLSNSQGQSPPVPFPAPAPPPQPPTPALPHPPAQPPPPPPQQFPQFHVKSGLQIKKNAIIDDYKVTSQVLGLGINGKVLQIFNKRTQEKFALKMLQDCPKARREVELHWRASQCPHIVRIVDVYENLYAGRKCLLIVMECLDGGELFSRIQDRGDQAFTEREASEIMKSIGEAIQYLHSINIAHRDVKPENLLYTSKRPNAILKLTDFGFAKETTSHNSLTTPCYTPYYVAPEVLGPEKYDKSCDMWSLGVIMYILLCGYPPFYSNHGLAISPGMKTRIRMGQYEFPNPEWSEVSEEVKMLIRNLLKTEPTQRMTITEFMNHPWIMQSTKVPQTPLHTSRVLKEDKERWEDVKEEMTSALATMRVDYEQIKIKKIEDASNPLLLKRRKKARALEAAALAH
T4 sequence (P07333 20-972): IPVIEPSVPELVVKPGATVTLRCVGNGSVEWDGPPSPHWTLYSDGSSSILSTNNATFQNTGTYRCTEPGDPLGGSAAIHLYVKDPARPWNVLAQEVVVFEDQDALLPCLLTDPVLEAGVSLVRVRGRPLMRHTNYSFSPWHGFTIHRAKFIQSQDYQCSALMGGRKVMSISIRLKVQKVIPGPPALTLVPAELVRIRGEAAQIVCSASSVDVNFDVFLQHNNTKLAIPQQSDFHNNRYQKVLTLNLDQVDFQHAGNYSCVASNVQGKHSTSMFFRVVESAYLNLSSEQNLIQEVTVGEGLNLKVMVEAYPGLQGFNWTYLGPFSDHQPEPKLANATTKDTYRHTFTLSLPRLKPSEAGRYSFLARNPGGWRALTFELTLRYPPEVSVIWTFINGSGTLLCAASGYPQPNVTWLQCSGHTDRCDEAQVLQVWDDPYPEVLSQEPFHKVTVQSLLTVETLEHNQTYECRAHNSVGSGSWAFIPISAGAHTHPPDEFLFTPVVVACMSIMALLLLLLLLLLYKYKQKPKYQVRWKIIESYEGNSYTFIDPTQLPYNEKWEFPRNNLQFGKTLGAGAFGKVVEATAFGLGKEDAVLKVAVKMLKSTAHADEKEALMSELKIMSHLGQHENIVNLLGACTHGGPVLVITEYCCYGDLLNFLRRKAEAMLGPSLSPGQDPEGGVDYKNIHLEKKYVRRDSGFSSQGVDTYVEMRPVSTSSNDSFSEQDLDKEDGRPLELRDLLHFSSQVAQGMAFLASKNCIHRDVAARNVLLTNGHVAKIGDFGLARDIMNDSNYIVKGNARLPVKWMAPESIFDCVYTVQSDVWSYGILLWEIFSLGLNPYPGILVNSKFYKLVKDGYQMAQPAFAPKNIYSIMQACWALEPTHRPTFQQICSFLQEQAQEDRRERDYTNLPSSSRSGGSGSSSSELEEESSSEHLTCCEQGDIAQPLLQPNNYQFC
T7 sequence (O00329 whole entry): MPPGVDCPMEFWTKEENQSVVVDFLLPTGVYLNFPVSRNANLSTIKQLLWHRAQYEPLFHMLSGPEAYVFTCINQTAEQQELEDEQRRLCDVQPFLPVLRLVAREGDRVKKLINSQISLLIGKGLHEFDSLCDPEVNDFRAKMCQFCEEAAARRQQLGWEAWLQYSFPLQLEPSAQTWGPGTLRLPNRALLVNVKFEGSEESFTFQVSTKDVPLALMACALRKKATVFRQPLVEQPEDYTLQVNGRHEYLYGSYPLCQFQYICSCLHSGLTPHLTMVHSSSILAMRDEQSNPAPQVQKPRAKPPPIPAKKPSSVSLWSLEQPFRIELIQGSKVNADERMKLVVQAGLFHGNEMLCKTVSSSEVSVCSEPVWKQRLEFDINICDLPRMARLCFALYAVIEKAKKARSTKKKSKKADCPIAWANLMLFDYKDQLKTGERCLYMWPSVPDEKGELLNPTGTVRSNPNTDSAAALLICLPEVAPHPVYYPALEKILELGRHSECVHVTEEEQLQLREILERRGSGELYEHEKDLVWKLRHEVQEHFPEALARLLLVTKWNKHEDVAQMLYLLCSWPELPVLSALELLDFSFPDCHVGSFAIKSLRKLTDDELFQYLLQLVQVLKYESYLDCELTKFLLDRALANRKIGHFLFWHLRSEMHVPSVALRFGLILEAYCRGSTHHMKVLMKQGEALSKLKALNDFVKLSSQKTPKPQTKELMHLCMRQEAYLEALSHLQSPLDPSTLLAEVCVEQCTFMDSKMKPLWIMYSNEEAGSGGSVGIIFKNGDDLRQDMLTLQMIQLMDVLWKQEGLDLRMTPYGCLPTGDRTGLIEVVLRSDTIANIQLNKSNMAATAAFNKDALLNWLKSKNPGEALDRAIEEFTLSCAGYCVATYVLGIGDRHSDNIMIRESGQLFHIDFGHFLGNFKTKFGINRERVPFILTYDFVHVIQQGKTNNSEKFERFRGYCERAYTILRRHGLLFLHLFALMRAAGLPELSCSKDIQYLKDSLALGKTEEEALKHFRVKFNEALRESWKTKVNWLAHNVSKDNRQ
T7 sequence (P27986 whole entry partner): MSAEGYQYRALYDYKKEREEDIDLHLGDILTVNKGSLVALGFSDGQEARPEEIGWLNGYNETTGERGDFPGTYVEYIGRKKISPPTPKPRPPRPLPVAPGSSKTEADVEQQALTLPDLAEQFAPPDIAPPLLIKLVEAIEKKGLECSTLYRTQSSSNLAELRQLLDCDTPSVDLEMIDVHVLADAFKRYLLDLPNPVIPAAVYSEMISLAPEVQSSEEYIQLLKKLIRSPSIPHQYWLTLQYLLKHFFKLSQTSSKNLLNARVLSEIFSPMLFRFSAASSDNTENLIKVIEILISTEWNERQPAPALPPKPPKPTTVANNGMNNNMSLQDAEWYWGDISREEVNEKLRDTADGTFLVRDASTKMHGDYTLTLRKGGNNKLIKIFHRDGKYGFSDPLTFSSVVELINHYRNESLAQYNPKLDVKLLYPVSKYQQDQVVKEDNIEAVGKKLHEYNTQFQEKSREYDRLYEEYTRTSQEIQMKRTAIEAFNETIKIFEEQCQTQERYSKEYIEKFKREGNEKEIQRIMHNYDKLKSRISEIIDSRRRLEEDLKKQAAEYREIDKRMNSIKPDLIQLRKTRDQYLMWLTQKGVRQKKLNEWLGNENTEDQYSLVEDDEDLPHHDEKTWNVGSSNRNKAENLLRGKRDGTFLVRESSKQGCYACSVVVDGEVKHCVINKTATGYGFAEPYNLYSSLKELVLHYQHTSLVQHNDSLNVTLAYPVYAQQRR

SMILES: O=C(CCn1ncc2ccccc21)N1CCOC(c2ccc(Cc3ccc(F)cc3)cn2)C1 (stereo not drawn) [compound 1, 1-(2-(5-(4-fluorobenzyl)pyridin-2-yl)morpholino)-3-(1H-indazol-1-yl)propan-1-one]
- pAKT [1]: decreased
- modulation of Gα12 luciferase reporter signal (agonist/antagonist) (Gα12): inhibition
- pMLC [2]: decreased
- specificity: effect on the overwhelming majority of the 113 human kinases (113 unique human kinases): little to no effect
- number of kinases exhibiting dose dependent inhibition (113 unique human kinases; of 113 human kinases): 7
- number of kinases with agonism observed (113 unique human kinases; of 113 human kinases, none relevant in human airway smooth muscle): 4
- MAPKAP-K2 inhibition, dose dependence (MAPKAP-K2(h); 1, 10 and 100 μM): inhibited in a dose-dependent manner
- activity at 1 µM (MAPKAP-K2(h); compound at 1 μM, read-out: MAPKAP-K2(h) kinase activity (human kinase inhibition data)): 90%
- activity at 10 µM (MAPKAP-K2(h); compound at 10 μM, read-out: MAPKAP-K2(h) kinase activity (human kinase inhibition data)): 77%
- activity at 100 µM (MAPKAP-K2(h); compound at 100 μM, read-out: MAPKAP-K2(h) kinase activity (human kinase inhibition data)): 65%
- activity at 1 µM (mTOR(h); compound at 1 μM): 103%
- activity at 10 µM (mTOR(h); compound at 10 μM): 104%
- activity at 100 µM (mTOR(h); compound at 100 μM): 70%
- activity at 1 µM (Fms(h); compound at 1 μM): 95%
- activity at 10 µM (Fms(h); compound at 10 μM): 94%
- activity at 100 µM (Fms(h); compound at 100 μM): 64%
- activity at 1 µM (TrkA(h); compound at 1 μM): 106%
- activity at 10 µM (TrkA(h); compound at 10 μM): 123%
- activity at 100 µM (TrkA(h); compound at 100 μM): 41%
- activity at 1 µM (IGF-1R(h); compound at 1 μM): 103%
- activity at 10 µM (IGF-1R(h); compound at 10 μM): 91%
- activity at 100 µM (IGF-1R(h); compound at 100 μM): 61%
- Aggregate Mean (of raw counts) (PI3Kδ; compound at 1 μM): 16175
- activity at 1 µM (PI3Kδ; compound at 1 μM, read-out: Kinase Activity (%), mean of replicates): 91%
- Raw Counts (PI3Kδ; compound at 1 μM, single replicates): 15209.80926 and 17139.70182
- Kinase Activity (%) (PI3Kδ; compound at 1 μM, single replicates, 1 µM): 86%
- activity at 1 µM (PI3Kδ; compound at 1 μM, single replicates, read-out: Kinase Activity (%)): 95%
- Aggregate Mean (of raw counts) (PI3Kδ; compound at 10 μM): 15960
- activity at 10 µM (PI3Kδ; compound at 10 μM, read-out: Kinase Activity (%), mean of replicates): 92%
- Raw Counts (PI3Kδ; compound at 10 μM, single replicates): 15948.27586 and 15971.06288
- activity at 10 µM (PI3Kδ; compound at 10 μM, single replicates, read-out: Kinase Activity (%)): 92%
- Aggregate Mean (of raw counts) (PI3Kδ; compound at 100 μM): 17900
- activity at 100 µM (PI3Kδ; compound at 100 μM, read-out: Kinase Activity (%), mean of replicates): 83%
- Raw Counts (PI3Kδ; compound at 100 μM, single replicates): 17495.26814 and 18305.46265
- Kinase Activity (%) (PI3Kδ; compound at 100 μM, single replicates, 100 µM): 81%
- activity at 100 µM (PI3Kδ; compound at 100 μM, single replicates, read-out: Kinase Activity (%)): 85%
